Assay results published in patent US8815944B2, “Pharmaceutical composition with gelling properties containing a tyrosine derivative” (Ethypharm, priority 2008, dated 2014).
Structures can show the parent of a compound that is named as a salt.

What was measured:
Format in all cases: physicochemical
[1] = Differential scanning calorimetry (DSC) of organogels in safflower oil; conditions: organogelator 5% (w/w) in safflower oil; for H (enthalpy of the gel-solution transition): area of endothermic peak; for TGS (gel-solution transition temperature): maximum of endothermic peak
Experimental: (§1) Organogelators at a concentration of 5% (w/w) were solubilized in safflower oil at high temperature (>80° C.) and gels were obtained by cooling the mixture.
The gels were characterized by differential scanning calorimetry (DSC) to obtain gel-solution transition temperatures (TGS) and enthalpy values of the transition (ΔH). Briefly, thermograms of gels were collected on a 2910 TA Instruments DSC system (New Castle, Del.). The instrument was calibrated with indium. Gels were weighed into aluminum pans that were subsequently sealed. Temperature was scanned between 5 and 90° C. at 10° C./min. The reported gel-sol transition temperatures (TGS) and enthalpies (ΔH) corresponded to the maximum and the area of the endothermic peaks respectively.

[2] = Rheological analysis of the gels (gel hardness, complex modulus G*); conditions: organogelator 5% (w/w) in safflower oil; 25±0.1° C., 0.1 to 10 Hz
Experimental: as §1
Rheological analysis of the gels was performed to determine the gel hardness, by measuring the complex modulus G*. The rheological properties of the organogels were measured by an AR2000 (Advanced Rheometer 2000, TA Instruments, New Castle, Del.), with parallel plate geometry (diameter of 40 mm). Organogels were heated until reaching TGS and they were placed between the parallel plates. The final thickness of the material coat between the plates was 650 to 750 μm. The film was cooled at 4° C. to form the gel. In the linear regime of the gel, the complex modulus G* have been measured as a function of the angular frequency (0.1 to 10 Hz) at 25±0.1° C. G*=(G′^2+G″^2)^0.5 with G′ the storage modulus and G″ the loss modulus.

[3] = Stability after sterilization by γ-radiation, by 1H-NMR; conditions: γ-radiation at 25 kGy on dry ice, 60Co source
Experimental: All formulation components were sterilized individually. B-TyrOCH3 and rivastigmine hydrogen tartrate (Riv) were sterilized on dry ice by γ-radiation at 25 kGy using a ^60Co source (Nordion Inc., Laval, QC, Canada). Stability of the organogelator and drug after sterilization was confirmed by ^1H-NMR. The safflower oil and NMP were filtered on 0.2-μm polytetrafluoroethylene filters. Safflower oil, B-TyrOCH3 (5% w/w) and Rivastigmine were mixed at 85° C. until solubilisation of the organogelator. N-methylpyrrolidone (NMP) (3% w/w) was added at high temperature, mixed and gel formulation syringes (20 G needle) were prepared, under aseptic conditions and put on ice during 15 minutes and at room temperature before injection. A control formulation was prepared without the organogelator in the same condition (oil formulation).

Row | Structure (SMILES) | H (enthalpy of the gel-solution transition) [1] [kcal/mol] | TGS (gel-solution transition temperature) [1] [°C] | G* (complex modulus, gel hardness) [2] [kPa] | Stability after sterilization [3]
1 | CCCCCCCCCCCCCCCCCC(=O)N[C@@H](Cc1ccccc1)C(=O)OC [S-Phe-OCH3, N-stearoyl L-phenylalanine methyl ester] | 9.08 | 43 | 6.1 | 
2 | CCCCCCCCCCCCCCCCCC(=O)N[C@@H](Cc1c[nH]c2ccccc12)C(=O)O [S-Trp-OH, N-stearoyl L-tryptophan] | 3.82 | 122 | <0.1 | 
3 | CCCCCCCCCCCCCCCCCC(=O)N[C@@H](Cc1c[nH]c2ccccc12)C(=O)OC [S-Trp-OCH3, N-stearoyl L-tryptophan methyl ester] | 5.5 | 56 | <0.1 | 
4 | CCCCCCCCCCCCCCCCCC(=O)N[C@@H](Cc1ccc(O)cc1)C(=O)O [S-Tyr-OH, N-stearoyl L-tyrosine] | 4.3 | 127 | 5 | 
5 | CCCCCCCCCCCCCCCCCCCCCC(=O)N[C@@H](Cc1ccccc1)C(=O)OC [B-Phe-OCH3] | 14.6 | 53 | 6 | 
6 | CCN(C)C(=O)Oc1cccc([C@H](C)N(C)C)c1 [rivastigmine hydrogen tartrate] |  |  |  | confirmed
7 | CCCCCCCCCCCCCCCCCC(=O)N[C@@H](Cc1ccc(O)cc1)C(=O)OC [S-Tyr-OCH3, N-Stearoyl L-tyrosine methyl ester] | 12 | 65 | 15.2 | 
8 | CCCCCCCCCCCCCCCCCCCCCC(=O)N[C@@H](Cc1ccc(O)cc1)C(=O)OC [B-Tyr-OCH3, N-Behenoyl L-tyrosine methyl ester] | 17 | 74 | 37.6 | 
9 | CCCCCCCCCCCCCCCCCC(=O)NC(C)C(=O)OC (stereo not shown) [S-Ala-OCH3] | 13.1 | 60 | 5 | 
